Series [1] is described as follows: Cytotoxicity against human HepG2 cells assessed as reduction in cell viability measured after 3 days by CellTiterGlo Luminescent assay. It counts as toxicity, cell-based. Conditions: time 3 day. (In ATP-based viability assays light output follows the ATP content of the culture.)
A short description of series [2]: Cytotoxicity against human HEK293T cells assessed as reduction in cell viability measured after 3 days by CellTiterGlo Luminescent assay. It counts as toxicity, cell-based, HEK-293T. Conditions: time 3 day.
For series [3], the system named is Mycobacterium tuberculosis. As to the kind of experiment: Antitubercular activity against Mycobacterium tuberculosis H37Rv assessed as inhibition of bacterial growth incubated for 7 days by Microdilution Alamar Blue assay. It is filed as functional. Conditions: 168 h, time 7 day. For orientation: In broth dilution the organism is exposed to a series of concentrations in liquid medium.

Series [4] in a line: Plasma concentration in mouse at 20 mg/kg, po measured after 8 hrs. It counts as ADME, organism-based.
Series [5] can be described thus: Drug uptake in mouse lungs at 20 mg/kg, po measured after 8 hrs. It is filed as ADME, organism-based. Conditions: lung, read-out: Drug uptake.

Our source for the CC50, MIC and concentration values is ChEMBL document CHEMBL5357000, “Synthesis and structure-activity relationships of aryl fluorosulfate-based inhibitors as novel antitubercular agents” (Bioorg Med Chem Lett, 2024).

≈ marks a conversion by molar mass, not a printed value.

By CC50 is commonly meant the concentration giving 50% cytotoxicity. What is called MIC is the lowest concentration found to suppress growth.

For the compound `O=S(=O)(F)Oc1ccc(OCc2c(F)cc(-n3cnnc3)cc2F)cc1`, the CC50 at 72 h in series [1] and in series [2] was greater than 40 µM throughout. Moreover, the MIC in series [3] turned out to be 0.22 µM (≈ 0.0848 µg/mL).
In the case of `CN(C)c1ncn(-c2cc(F)c(COc3ccc(OS(=O)(=O)F)cc3)c(F)c2)n1`, the CC50 at 72 h in series [1] and in series [2] was greater than 40 µM in each case. Besides, in series [3], the MIC turned out to be 0.31 µM (≈ 0.133 µg/mL).
Regarding `CS(=O)(=O)Nc1ncn(-c2cc(F)c(COc3ccc(OS(=O)(=O)F)cc3)c(F)c2)n1`, the concentration at 8 h in series [4] was 2120 ng/mL; in series [5], 1600 ng/mL.
